# Test results: patent US20110008279A1, “Methods and Compositions Relating to Adhesins as Adjuvants” (priority 2005, published 2011)
# “Also recorded” adds a separate entry of the source.
# How the values were obtained:
# [1] = system: human macrophages; test: Cytokine and chemokine secretion by human macrophages (Bio-Plex, IL-23 ELISA); type: cell-based
# Protocol: The secretion of various immune mediators by isolated adherent human […] and macrophages was assayed with a Bio-Plex immune array. The pro-inflammatory cytokines IL-1α, IL-1β, TNFα, IFNγ, IL-6, the growth factor GM-CSF, the regulatory cytokines IL-12 (p40), IL-12 (p70), IL-10, as well as the chemokines IL-8, MCP-1, MIP-1α, IP-10, RANTES and EOTAXIN were assayed. The lymphocyte cytokines IL-2, IL-3, IL-4, IL-5, IL-7, IL-13 and IL-15 were also assayed. IL-23 expression was assayed using an ELISA assay. No secretion of IL-2, IL-3, IL-4, IL-5, IL-7, IL-13 or IL-15 was detected.
# Peripheral monocytes and macrophages were stimulated with different concentrations of NadAΔ351-405, with or without LPS (0.2 μg/ml) and IFNγ (1000 U/ml), and with purified E. coli or N. meningitis OMV.
# [2] = system: mo-DCs; test: Cytokine and chemokine secretion by mo-DCs (Bio-Plex, ELISA); type: cell-based, human; conditions: for IL-12 released on co-stimulation with R-848: NadA 1.5 μM + R-848 1 μM
# Protocol: Reagents used were tested for low endotoxin contamination using the Limulus amoebocyte assay (Sigma). Dendritic cells were generated from human peripheral blood mononuclear cells (PBMC) as described previously. In brief, PBMC were isolated from buffy coats of healthy donors by Ficoll-Paque Plus density gradient centrifugation (Amersham Pharmacia Biotech AB). Separate monocyte and T-cell fractions were obtained from PBMCs by Percoll density gradient centrifugation (Amersham Pharmacia Biotech AB). Residual T and B cells were removed from monocyte fraction by plastic adherence of 3×10^6 cells per well in 6-well plates (Costar) resulting in CD14^+ monocyte populations of >95% purity (determined by flow cytometry). DC were obtained by 6-d culture adherent monocytes in medium with 20 ng/ml IL-4 (5×10^6 units/mg, Peprotech) and 50 ng/ml GM-CSF (1×10^7 units/mg, Peprotech). Cytokines were added again on day 4 in RPMI-1640 medium supplemented with 10% FBS. Following this procedure more than 90% cells belonged to the immature DC phenotype (CD1a^+, HLADRlow, CD14^−, CD83^−, CD86^low, CD80^low). On day 5 cells were treated with nothing or with recombinant human IFN-γ (1000 U/ml) for 18 h before stimulation with NadA (0.0375-5 μM) or LPS (1 μg/ml). After 24 h cells were harvested and analysed. Culture supernatants were collected frozen in liquid nitrogen and conserved at −80° C. for cytokine analysis.
# The antibody pairs used, directed against different non-competing epitopes of a given cytokine, were purchased from BioRad. Calibration curves from recombinant cytokine standard were prepared with four-fold dilution steps in RPMI-1640 medium containing 10% FBS. Assays were carried out in 96-well sterile pre-wetted filter plates at room temperature and protected from light. A mixture containing 5000 microspheres per cytokine was incubated together with standard or sample in a final volume of 50 μl for 30 min, under continuous shaking (300 rpm). After three washes by vacuum filtration with Bio-Plex washing buffer a cocktail of biotinylated antibodies diluted in Bio-Plex detection antibody diluent was added (25 μl to each well). After a 30 minutes incubation and washing, Streptavidin-PE diluted in Bio-Plex Assay buffer was added (50 μl per well). At the end of 10 minutes incubation under continuous shaking and after washing the fluorescence intensity of the beads was measured in a final volume of 125 μl of Bio-Plex assay buffer. Data analysis was done with Bio-Plex Manager software using a five-parametric-curve fitting. The detection limits were […].
# IL12(p40) was measured by capture enzyme-linked immunosorbent assay (ELISA) with antibody pairs and cytokine standard purchased from Bender MedSystems. The concentrations of IL12(p40) in the cell-free supernatants were determined with ELISA kits according to the manufacturer's instructions. The detection limit of the assays was […].
# [3] = system: monocytes; test: Apoptosis and survival of monocytes (caspase-3 assay, MTT assay); type: cell-based, human
# Protocol: A) Caspase-3 assay, B) MTT assay.
# The survival effect of NadA on monocytes was investigated. […] Apoptosis was not increased after a 40 hour exposure to NadAΔ351-405 or LPS. […] NadA survival effect was compared with the action of LPS or medium alone.
# [4] = system: human monocytes; test: Cytokine and chemokine secretion by human monocytes (Bio-Plex, IL-23 ELISA); type: cell-based
# [5] = system: mo-DCs; test: Morphology of mo-DCs (light microscopy); type: cell-based, human; conditions: IFN-γ priming 18 hours, NadAΔ351-405 1.5 μM, 3 hours
# [6] = system: allogenic CD4+ naïve T lymphocyte; test: Allogenic mixed leukocyte reaction, naive CD4+ T-cell proliferation; type: cell-based, human
# Protocol: Allogenic mixed leukocyte reaction was performed with irradiated (3000 rads from a ^137Cs source) mo-DC and purified allogenic T cells. […], LPS 1 μg/ml (positive control) and non stimulated DC (negative control) pretreated or not with IFN-γ 1000 U/ml were washed and cultured with allogenic CD4+ naïve T lymphocyte (0.3×10^5 cells/well) for 5 days at 37° C. in a humidified CO2 incubator in round-bottom 96-well microtiter plates (Costar). Proliferation was measured by pulse-labelling triplicate wells for 6 h with 1 μCi of 3H-Thymidine/well (Amersham Biosciences). Negative controls included T naive cells incubated or DC incubated alone.
# ^3H-Thymidine incorporation was measured by harvesting cells onto glass fiber filter paper (Pall Corporation, Life Sciences) using a 96-well semiautomatic cell harvester (Multiwash 2000, Dynatech) and counting by liquid scintillation in a […] (Wallac 1409 liquid scintillation counter).
# [7] = after IFN-γ priming, 24 hours, NadAΔ351-405 1 μM
substance,measurement,setting,value
NadAΔ351-405,EOTAXIN expression,[1],decrease
same,GM-CSF secretion,[1],No secretion
same,IL-1α production,[1],No IL-1α was produced
same,IL-1β and TNFα production,[1],produced only IL-1β and TNFα
same,IL-10 production,[1],induced the production
same,IP-10 production,[1]; NadA alone,In neither monocytes nor macrophages was NadA alone able to produce IP-10
same,IL-12(p40) expression,"[1]; NadA alone, even in the presence of LPS and IFNγ",decrease
same,IL-6 secretion,[1]; together with IFNγ,increasing secretions
same,IL-12 released on co-stimulation with R-848,[2]; after IFN-γ priming,45 ng/mL
same,IL-12 released on co-stimulation with R-848,[2]; no IFN-γ priming,2 ng/mL
same,increase of IL-12 release by IFN-γ priming,[2]; NadA + R-848,20 fold
same,"IL-12p70 secretion, dose response","[2]; absence of IFN-γ priming, up to 5 μM NadA",undetected
same,IL12-p40 maximal secretion relative to LPS,[2]; after IFN-γ priming,~2%
same,IL-12p70 secretion level relative to LPS,[2]; after IFN-γ priming,< 2%
same,"IL-12p70 secretion, dose response",[2]; after IFN-γ priming,reached a plateau below 1 μM NadA
same,IL-6 production relative to maximal LPS production,[2]; [7],~24%
same,TNFα production relative to maximal LPS production,[2]; [7],~24%
same,"NadA concentration at which IL-6, TNFα and IL-8 were evident",[2]; non-primed cells,higher than 1 μM
same,IL-8 secretion relative to that induced by LPS,[2]; with and without IFN-γ priming,~24%
same,IL-10 production,"[2]; with or without IFN-γ priming, up to 5 μM NadA",Under no condition in this example was NadA able to induce IL-10 production; also recorded: undetectable
same,apoptotic effect compared with medium-treated monocytes,[3],four times less
same,apoptotic effect compared with the amount induced by LPS,[3],two times less
same,IL-10 production,[4],induced the production
same,IL-23 expression,[4],only in the presence of IFNγ
same,MCP-1 production,[4],significant levels
same,"IL-1α, IL-1β and TNFα secretion",[4]; NadA alone,not significantly induced
same,IL-8 secretion,[4]; NadA alone,significant secretion
same,IP-10 production,[4]; NadA alone,In neither monocytes nor macrophages was NadA alone able to produce IP-10
same,IL-12(p40) and IL-12(p70) expression,[4]; alone or in the presence of LPS,not significantly expressed
same,expression of IL-1α and TNFα,[4]; co-stimulation with LPS,inhibited
same,GM-CSF secretion,[4]; even with IFNγ co-stimulation,does not stimulate secretion
same,IL-10 expression (so in the source),[4]; only in the presence of IFNγ and LPS,efficiently increased
same,IL-6 secretion,[4]; presence or absence of LPS,significant secretion
same,MIP-1α production,[4]; with or without co-stimulus,produced
same,cell morphology,[5],some cells became elongated and tended to cluster
same,T lymphocyte activation by mo-DCs,"[6]; absence of IFN-γ priming, 1 μM",not able to induce a mo-DC phenotype competent for T lymphocyte activation
same,T cell proliferation relative to LPS-matured mo-DCs,[6]; mo-DCs primed with INFγ then stimulated with NadA,30-40%
